According to BindingDB's records for doi:10.7270/Q2TX3CTT (Broad Institute, 2010):
Counter-ions that a name gives are not always drawn.

Molecular target: Glycogen synthase kinase-3 beta (Homo sapiens, UniProt P49841)
Experiment: concentration-response blocking of human GSK3B – biochemical, luminescence, cell-free homogeneous, retest, dose response (AID 434954)

Sequence of Glycogen synthase kinase-3 beta (P49841 whole entry): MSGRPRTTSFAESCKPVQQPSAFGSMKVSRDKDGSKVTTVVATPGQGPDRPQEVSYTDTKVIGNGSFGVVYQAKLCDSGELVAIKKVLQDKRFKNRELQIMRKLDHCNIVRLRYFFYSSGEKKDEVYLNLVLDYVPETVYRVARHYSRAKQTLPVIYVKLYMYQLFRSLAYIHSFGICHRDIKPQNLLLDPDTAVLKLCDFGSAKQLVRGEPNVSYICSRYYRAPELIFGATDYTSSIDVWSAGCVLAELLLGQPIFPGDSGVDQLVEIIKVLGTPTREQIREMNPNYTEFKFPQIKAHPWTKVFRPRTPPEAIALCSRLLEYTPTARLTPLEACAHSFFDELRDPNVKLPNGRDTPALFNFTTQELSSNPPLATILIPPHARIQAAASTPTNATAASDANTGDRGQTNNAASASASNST

| Compound | EC50 |
| --- | --- |
| CCCCCOc1ccc(C=NNC(=O)c2nnn(-c3nonc3N)c2CN2CCCCCC2)cc1 [1-(4-azanyl-1,2,5-oxadiazol-3-yl)-5-(azepan-1-ylmethyl)-N-[(4-pentoxyphenyl)methylideneamino]-1,2,3-triazole-4-carboxamide] | 9.79 µM |
| O=C(NCC(c1ccco1)N1CCOCC1)c1cccc(Cl)c1 (stereo not given) [SMR000808258] | > 300 µM |
| CN(c1ncnc(N)c1[N+](=O)[O-])C1CCS(=O)(=O)C1 (stereo not given) [SMR000347974] | 28.2 µM |
| O=C(CN1C(=O)CCC1=O)Nc1ccc(Br)cc1 [N-(4-bromophenyl)-2-(2,5-dioxo-1-pyrrolidinyl)acetamide] | > 300 µM |
| Cc1nn(-c2ccccc2)c2c1cc1c(=O)n(C)c(=O)nc-1n2-c1ccccc1F [MLS000769580] | 106 µM |
| O=C(Nc1ccc(Cl)cc1)Nc1ccccn1 [1-(4-chlorophenyl)-3-(2-pyridinyl)urea] | 43.7 µM |
| COc1cccc(C(=O)N/N=C/c2ccc(Oc3ccc([N+](=O)[O-])cn3)c(OC)c2)c1 [3-methoxy-N-[[3-methoxy-4-(5-nitropyridin-2-yl)oxyphenyl]methylideneamino]benzamide] | > 300 µM |
| COc1ccc(C=C2SC(Nc3ccccc3)=NC2=O)cc1 [5-(4-Methoxy-benzylidene)-2-phenylimino-thiazolidin-4-one] | > 300 µM |
| N#Cc1c2n(c3c(S)ncnc13)CCCCC2 [4-sulfanylidene-1,6,7,8,9,10-hexahydropyrimido[3,4]pyrrolo[3,5-a]azepine-11-carbonitrile] | 0.304 µM |
| O=C(O)c1ccccc1N=NCc1ccnc2ccccc12 | > 300 µM |
| Cc1ccc(C)c(N2CCN(C(=O)Cn3ncc4c([nH]c5ccc(C)cc54)c3=O)CC2)c1 [3-[2-[4-(2,5-dimethylphenyl)piperazin-1-yl]-2-oxidanylidene-ethyl]-8-methyl-2H-pyridazino[4,5-b]indol-4-one] | > 300 µM |
| Cc1ccc2c(c1)=C(NN1C(=O)c3ccccc3C1=O)C(=O)N=2 [MLS000573597] | > 300 µM |
| COc1cccc(C(=O)CSc2nccn2C)c1 [1-(3-Methoxy-phenyl)-2-(1-methyl-1H-imidazol-2-ylsulfanyl)-ethanone] | > 300 µM |
| CCOc1ccc(CNC(=O)C2CCN(c3nnc(C)c4c(C)n(-c5ccc(C)cc5)nc34)CC2)cc1 [MLS001028751] | > 300 µM |
| O=C(Nc1cccc2c1C(=O)NC2=O)c1ccccc1[N+](=O)[O-] [N-(1,3-dioxo-4-isoindolyl)-2-nitrobenzamide] | > 300 µM |
| NC(=O)c1c(NC(=O)c2ccncc2)sc2c1CCCC2 | > 300 µM |
| COc1cc(/C=C/c2nc3ccc([N+](=O)[O-])cc3s2)ccc1OCC(=O)O [SMR000365317] | > 300 µM |
| CSc1nc(SCC(=O)NC(c2ccccc2)c2ccccc2)c2c3c(sc2n1)CN(C)CC3 | > 300 µM |
| Cc1ccc(OCC(=O)NN=C2SCC(=O)N2Cc2ccccc2)cc1 [2-(4-methylphenoxy)-N-[[4-oxo-3-(phenylmethyl)-2-thiazolidinylidene]amino]acetamide] | > 300 µM |
| O=C1CN=C(c2ccccc2)c2c(sc3c2CCCC3)N1 | 27.8 µM |
| CCOc1cc(C2c3c(n[nH]c3C)C(=O)N2c2ccc(Br)cc2)ccc1O (stereo not given) [SMR000059772] | > 300 µM |
| Cc1c(O)c(CN2CCCCC2)cc2c1oc(=O)c1ccccc12 [MLS000551544] | > 300 µM |
| Cc1ccccc1CN=Nc1ncnc2nc[nH]c12 [MLS000419110] | 17.2 µM |
| Fc1ccccc1CNc1nc(-c2cccnc2)nc2ccccc12 [N-[(2-fluorophenyl)methyl]-2-pyridin-3-ylquinazolin-4-amine] | > 300 µM |

| Compound | EC50 |
| --- | --- |
| N#Cc1c(N)nc2c(c1-c1ccc(F)cc1)CCC2 | > 300 µM |
| O=[N+]([O-])c1ccc2ccn(C3OCC(O)C(O)C3O)c2c1 (stereo not given) [SMR000283162] | > 300 µM |
| O=C(O)COc1ccc(C(=O)c2ccccc2)cc1 [2-[4-(phenylcarbonyl)phenoxy]ethanoic acid] | > 300 µM |
| O=C(NN=Cc1ccc(-c2ccc(Cl)c(C(=O)O)c2)o1)c1cc2c(ccc3ccccc32)o1 [5-[5-[(benzo[e][1]benzofuran-2-carbonylhydrazinylidene)methyl]furan-2-yl]-2-chlorobenzoic acid] | > 300 µM |
| NC(=O)C1CCN(C(=O)c2ccc(Oc3cc(Cl)cc(Cl)c3)o2)CC1 [1-[5-[3,5-bis(chloranyl)phenoxy]furan-2-yl]carbonylpiperidine-4-carboxamide] | > 300 µM |
| CC(=O)Nc1ccc(S(=O)(=O)c2cc(O)ccc2O)cc1 | > 300 µM |
| N#Cc1c(-c2ccccc2)nc(-c2ccccc2)[nH]c1=O [SMR000168447] | > 300 µM |
| O=C(NC(=O)c1ccccc1)Nc1ccccn1 [N-(pyridin-2-ylcarbamoyl)benzamide] | 51.2 µM |
| O=C(Nc1ccc(-c2nc3ccccc3o2)cc1)c1ccc(N2CCOCC2)c([N+](=O)[O-])c1 [SMR000201361] | > 300 µM |
| Cc1ccc(C(=O)c2coc3ccc(O)cc23)cc1 [SMR000539213] | 11.2 µM |
| Fc1ccc(CSc2nnc(-c3ccncc3)o2)cc1 | > 300 µM |
| O=C(OCCCOC(=O)c1ccc(O)cc1)c1ccc(O)cc1 [4-hydroxybenzoic acid 3-[(4-hydroxyphenyl)-oxomethoxy]propyl ester] | 1.84 µM |
| CCOC(=O)C1CCN(CC(O)COC(CC)c2ccccc2)CC1 (stereo not given) [ethyl 1-[2-oxidanyl-3-(1-phenylpropoxy)propyl]piperidine-4-carboxylate;hydrochloride] | > 300 µM |
| Cc1cc(Br)ccc1NC(=O)CN1C(=O)CCC1=O | > 300 µM |
| O=C(Nc1cccc(F)c1)c1cccc2c1C(=O)N(C1CCCCC1)C2 [MLS000912875] | > 300 µM |
| C=C1C(c2ccc(OC)cc2)=[N+](O)C(C)=C(C)N1[O-] | > 300 µM |
| O=C(NCC(c1ccco1)N1CCc2ccccc21)c1cccc([N+](=O)[O-])c1 (stereo not given) [SMR000811914] | > 300 µM |
| CCN1CCN(c2nc(Nc3cc(OC)ccc3OC)nc(Nc3cc(OC)ccc3OC)n2)CC1 [SMR000439674] | > 300 µM |
| CCOc1ccc2nc(NC(=O)CSc3nc(O)c(C#N)c(-c4ccccc4)n3)sc2c1 | 34.2 µM |
| CCN(CCNC(=O)CN(C)S(=O)(=O)c1cccc2nsnc12)c1ccccc1 | > 300 µM |
| C[O+]=N[CH-]c1ccc(Oc2ccc(C)cc2)c([N+](=O)[O-])c1 [4-(4-methylphenoxy)-3-nitrobenzenecarbaldehyde O-methyloxime] | > 300 µM |
| COc1ccc2oc(C)c(C(=O)c3ccc(C)cc3)c2c1 [(5-methoxy-2-methyl-3-benzofuranyl)-(4-methylphenyl)methanone] | > 300 µM |
| O=C1C[C@@H](c2ccc(O)cc2)Oc2cc(O)ccc21 [7-Hydroxy-2-(4'-hydroxyphenyl)chroman-4-one] | > 300 µM |
| CCSc1nc(N)c2c3c(sc2n1)CN(C)CC3 [MLS000082600] | > 300 µM |

| Compound | EC50 |
| --- | --- |
| COc1ccc(CCNc2nc(-c3cccnc3)nc3ccccc23)cc1OC [N-[2-(3,4-dimethoxyphenyl)ethyl]-2-pyridin-3-ylquinazolin-4-amine] | > 300 µM |
| CCOC(=O)c1sc(NC(=O)CSc2nnc(C(C)C)n2C)nc1C [2-[2-(5-Isopropyl-4-methyl-4H-[1,2,4]triazol-3-ylsulfanyl)-acetylamino]-4-methyl-thiazole-5-carboxylic acid ethyl ester] | 26 µM |
| CCOc1ccc(N2C(=O)C(=Nc3ccccc3O)C(Cl)C2=O)cc1 (stereo not given) [SMR000124402] | > 300 µM |
| OCCNc1nc2nonc2nc1NCCO | > 300 µM |
| Cc1ccc(C(=O)N/N=C/c2ccc(-c3ccc([N+](=O)[O-])cc3)o2)cn1 [SMR000431371] | > 300 µM |
| O=[N+]([O-])c1ccccc1S(=O)(=O)N1CCc2ccccc2C1 [SMR000273931] | > 300 µM |
| CC(C)N1CCc2c(sc(NC(=O)CCc3ccccc3)c2C(N)=O)C1 [MLS000419104] | > 300 µM |
| COc1ccc(-c2nn(-c3ccccc3)cc2/C=C(\C#N)S(=O)(=O)c2ccccc2)cc1OC [(E)-2-(benzenesulfonyl)-3-[3-(3,4-dimethoxyphenyl)-1-phenyl-4-pyrazolyl]-2-propenenitrile] | > 300 µM |
| CCOC(=O)C1CCN(c2cc(C)nc3ccc(OC)cc23)CC1 [MLS000772886] | > 300 µM |
| COC(=O)c1nnn(-c2nonc2N)c1CN1CCc2ccccc21 [1-(4-amino-1,2,5-oxadiazol-3-yl)-5-(2,3-dihydroindol-1-ylmethyl)-4-triazolecarboxylic acid methyl ester] | 6.97 µM |
| O=c1c2[nH]c3ccccc3c2ncn1C1CCCCC1 [SMR000039546] | > 300 µM |
| CS(=O)(=O)c1ccc2nc(NC(=O)CN3CCN(Cc4ccccc4)CC3)sc2c1 [MLS000064538] | > 300 µM |
| CCOC(=O)c1c(S(=O)(=O)NCC(=O)NCc2ccc(C)cc2)c(C)n(C)c1C [ethyl 1,2,5-trimethyl-4-[[2-[(4-methylphenyl)methylamino]-2-oxoethyl]sulfamoyl]pyrrole-3-carboxylate] | > 300 µM |
| Cc1c(C(=O)OCCOc2ccccc2)[nH]c2c1C(=O)CCC2 [MLS000090901] | 10.9 µM |
| Nc1nc(NCc2ccco2)nc(NC2CCCCC2)c1[N+](=O)[O-] [MLS000769818] | > 300 µM |
| O=C(Nc1ccccc1C(=O)O)c1nnc[nH]1 | > 300 µM |
| COc1ccc(-c2nn(-c3ccccc3)cc2C=NNS(=O)(=O)c2ccccc2)cc1 | > 300 µM |
| COc1ccc2occ(C(=O)c3coc4ccc(O)c(CN(C)C)c34)c2c1 [[4-[(dimethylamino)methyl]-5-oxidanyl-1-benzofuran-3-yl]-(5-methoxy-1-benzofuran-3-yl)methanone;hydrochloride] | 1.99 µM |
| CCCC(NC(=O)Cc1c(C)c2c(cc(C)c3c(C)coc32)oc1=O)C(=O)O (stereo not given) [2-[[2-(3,4,9-trimethyl-7-oxofuro[2,3-f]chromen-8-yl)acetyl]amino]pentanoic acid] | > 300 µM |
| O=C(CN1C(=O)CCC1=O)Nc1ccc2c3c(cccc13)CC2 [N-(1,2-dihydroacenaphthylen-5-yl)-2-(2,5-dioxo-1-pyrrolidinyl)acetamide] | > 300 µM |
| O=C1/C(=C/C=C/c2ccccc2)Oc2c1ccc(O)c2CN1CCN(CCO)CC1 [SMR000415785] | > 300 µM |
| CCN(CC)Cc1c(C(=O)NN=Cc2ccc(C)o2)nnn1-c1nonc1N [1-(4-amino-1,2,5-oxadiazol-3-yl)-5-(diethylaminomethyl)-N-[(5-methylfuran-2-yl)methylideneamino]triazole-4-carboxamide] | 23 µM |
